{
  "source": "patent US9023876B2",
  "about": "“Compounds and methods for regulating integrins” (Adhaere Pharmaceuticals, Inc., priority 2010, dated 2015)",
  "key": {"[1]": {"target": "T1, CD11b A-domain (αA-domain) (Homo sapiens, UniProt P11215)", "T1 construct": "protein fragments spanning residues Gly^111-Gly^321 (321WT); made in house; host or cells: Escherichia coli", "T1 sequence (P11215 127-337)": "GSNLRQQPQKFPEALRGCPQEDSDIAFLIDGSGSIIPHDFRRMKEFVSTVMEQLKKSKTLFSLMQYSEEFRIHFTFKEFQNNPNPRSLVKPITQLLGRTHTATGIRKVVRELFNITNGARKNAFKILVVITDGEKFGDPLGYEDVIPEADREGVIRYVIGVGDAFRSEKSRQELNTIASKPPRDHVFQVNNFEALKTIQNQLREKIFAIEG", "test": "αA-domain ligand-binding assay (GST-αA-domain to immobilized Fg)", "conditions": "to level of activating mutant I316G", "text": "Purification of recombinant CD11b A-Domain (.Alpha.A-Domain). Recombinant human aA-domains were constructed and purified according to published protocols. […] The aA-domain in its active conformation was generated by replacing Ile^316 with Gly (1316G [55]) using forward primer 5′-[…]-3′ (SEQ ID NO: 3) and reverse primer 5′-[…]-3′ (SEQ ID NO: 4). The insert was digested with BamHI and SmaI and ligated into pGEX-2T vector also digested with BamHI and SmaI. All constructs were confirmed by direct DNA sequencing. All recombinant proteins were expressed as glutathione S-transferase (GST) fusion proteins in Escherichia coli and purified by affinity chromatography (Glutathione-beads, Sigma) following manufacturer's instructions. Purified protein preparations were dialyzed against 20 mm Tris-HCl, pH 7.5, 150 mm NaCl (Tris-buffered saline) and subsequently concentrated using Amicon-10 columns (Millipore) and stored at −80° C. […]\nMaxisorp 96-well plates were coated with Fg (1 μg/well) in 10 mM PBS, pH 7.4 overnight and blocked with 1% bovine serum albumin in PBS. […] Subsequently, the amount of bound protein was determined by incubating with anti-GST antibody conjugated to horseradish peroxidase (GE, Piscataway, N.J.) (1:2000 dilution) for 1 hr. […] Absorbance was read using Spectromax M5 spectrophotometer (Molecular Devices, Sunnyvale, Calif.). […]"}, "K562 CD11b/CD18 cells": {"test_system": "K562 CD11b/CD18 cells", "test": "Cell viability assay (MTS)", "format": "cell-based", "conditions": "24 h; concentrations as high as 50 μM", "description": "Cell viability assay was performed as described. Briefly, K562 CD11b/CD18 cells (10,000/well) were incubated in 96 well plates (Corning, Corning, N.Y.) with increasing amounts of indicated compound for 24 h. The number of viable cells after 24 h was determined by using MTS reagent according to manufacturers protocol (Promega, Madison, Wis.) and using Spectramax M5 spectrophotometer (Molecular Devices) for reading of the assay plates. Data presented is representative of at least two independent experiments."}, "Fischer 344 rats": {"test_system": "Fischer 344 rats", "test": "Balloon induced arterial injury in rats", "format": "in vivo, rat", "text": "All surgeries were under isoflurane anaesthesia (Baxter, Ill., USA). Balloon injury in the right iliac artery was inflicted with a 2F Fogarty catheter (Baxter Corp., Irvine, Calif., USA) adapted to a custom angiographic kit (Boston Scientific, Scimed). An aortotomy in the abdominal aorta was made to insert a 2F Fogarty embolectomy catheter to the level of the right iliac artery. The balloon was inflated to 1.5-1.6 atmospheres and retracted to the arteriotomy site three times. The aortic excision was repaired with 8.0 sutures. The abdominal cavity was closed by planes using interrupted suture pattern. Arterial specimens were collected 3-30 days after injury and fixed in 4% formalin-PBS (Sigma-Aldrich, St. Louis, Mo.) for 5 min and analyzed by histology and immunostaining\nElastica van Gieson staining was used for histochemical analyses to evaluate neointima formation. Morphometric analyses was performed in a blinded fashion using NIH ImageJ. Immunostaining with anti-rat CD68 (1:50, AbD Serotec) for the detection of macrophages in the tissue.\nLeukocyte recruitment precedes neointimal thickening and restenosis following percutaneous transluminal coronary angioplasty (PTCA). […]"}, "[2]": {"test_system": "Tg(mpx::eGFP) zebrafish larvae", "test": "Zebrafish tailfin injury assay", "format": "in vivo", "conditions": "4 h post injury; vehicle 34.6±4.5", "description": "Transgenic Tg(mpx::eGFP) were maintained according to standard protocols. Tailfin injury in three days post fertilization (dpf) larvae was performed as described. Larvae were anesthetized by immersion in E3 with […] tricane, and tail was completely transected with a sterile microdissection scalpel in accordance with the approved protocols and were recovered for the indicated time points. Zebrafish larvae (3 dpf) were treated with compounds as described (Ref). Briefly, small molecule compounds were administered by immersing the larvae in a solution of the compounds in E3. The final concentration of DMSO was kept at <1%. For the assessment of the inflammatory response, injured larvae were analyzed at 4 h post-injury. For the post-wash assay, uninjured larvae incubated with the compounds in E3 for 4-8 h, washed into E3 and injured. Larvae were analyzed using a Leica DMI6000B microscope and an Hamamatsu Orca-3CCD camera using Volocity. Excitation was performed using the laser at 488 nm and the images were analyzed using Volocity. The number of fluorescent neutrophils at the site of inflammation were counted by eye in a blinded fashion. […]"}},
  "data": [
    {"smiles": "O=C(O)c1ccc(-c2ccc(/C=C3\\SC(=S)N(Cc4ccccc4)C3=O)o2)cc1", "note": "[LA1]", "values": [
      {"measurement": "binding of the WT αA to the immobilized ligand", "setting": "[1]", "value": "increased binding"},
      {"measurement": "in vitro cytotoxicity to K562 cells", "setting": "K562 CD11b/CD18 cells", "value": "no cytotoxicity"},
      {"measurement": "neointima to media ratio", "setting": "Fischer 344 rats; rat arteries 21 days after balloon injury, vehicle 0.23±0.01", "value": "0.16±0.02"},
      {"measurement": "number of medial macrophages (CD68)", "setting": "Fischer 344 rats; rat arteries three days post-injury, vehicle 42.2±6.7", "value": "17.7±3.1"},
      {"measurement": "neutrophil accumulation in the zebrafish tailfin (number of neutrophils)", "setting": "[2]", "value": "15.6±1.7"}
    ]}
  ]
}
